Data as given in PubChem BioAssay (NCI).
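Compound exposure: 48 hours, 5 concentrations, 96-well plates. TGI is the concentration that stops growth completely.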 Where a SMILES comes first, the peptide text is derived from it. The star is where a group is joined. Cbz = O=C(OCc1ccccc1)*

Experiments:
Assay in all cases: NCI tumour cell line growth inhibition, 48 h
BT-549 breast = test system: BT-549 breast
DU-145 prostate = test system: DU-145 prostate
HCT-116 colon = test system: HCT-116 colon
HL-60(TB) leukemia = test system: HL-60(TB) leukemia
HS 578T breast = test system: HS 578T breast
IGROV1 ovarian = test system: IGROV1 ovarian
MDA-MB-231 breast = test system: MDA-MB-231 breast
NCI-H23 lung = test system: NCI-H23 lung
NCI/ADR-RES ovarian = test system: NCI/ADR-RES ovarian
OVCAR-3 ovarian = test system: OVCAR-3 ovarian
PC-3 prostate = test system: PC-3 prostate
RXF 393 renal = test system: RXF 393 renal
SK-MEL-28 melanoma = test system: SK-MEL-28 melanoma
T-47D breast = test system: T-47D breast
UACC-257 melanoma = test system: UACC-257 melanoma
MCF7 breast = test system: MCF7 breast
SR leukemia = test system: SR leukemia

| SMILES | TGI (BT-549 breast) [µM] | TGI (DU-145 prostate) [µM] | TGI (HCT-116 colon) [µM] | TGI (HL-60(TB) leukemia) [µM] | TGI (HS 578T breast) [µM] | TGI (IGROV1 ovarian) [µM] | TGI (MDA-MB-231 breast) [µM] | TGI (NCI-H23 lung) [µM] | TGI (NCI/ADR-RES ovarian) [µM] | TGI (OVCAR-3 ovarian) [µM] | TGI (PC-3 prostate) [µM] | TGI (RXF 393 renal) [µM] | TGI (SK-MEL-28 melanoma) [µM] | TGI (T-47D breast) [µM] | TGI (UACC-257 melanoma) [µM] | TGI (MCF7 breast) [µM] | TGI (SR leukemia) [µM] |
| --- | --- | --- | --- | --- | --- | --- | --- | --- | --- | --- | --- | --- | --- | --- | --- | --- | --- |
| Cc1oc2nc(N(C)C)nc(NN)c2c1C | > 100 | > 100 | > 100 | > 100 | > 100 | > 100 | > 100 | > 100 | > 100 | > 100 | > 100 | > 100 | > 100 | > 100 | > 100 | – | – |
| Cc1nn(C(=O)Cc2ccccc2)c2c1C(c1ccc([N+](=O)[O-])cc1)SC(N)=N2 (stereo not given) | > 100 | > 100 | > 100 | > 100 | > 100 | > 100 | > 100 | > 100 | – | – | > 100 | – | > 100 | > 100 | > 100 | > 100 | > 100 |
| CN(/N=C/c1ccc(Cl)c(Cl)c1)C1=NCCCCN1 | > 100 | > 100 | 79.4 | 65.5 | > 100 | > 100 | > 100 | > 100 | > 100 | > 100 | > 100 | – | – | > 100 | 50.8 | 54.3 | > 100 |
| CCCCc1nc(C)oc1C(C)C | > 100 | > 100 | > 100 | > 100 | > 100 | > 100 | > 100 | > 100 | > 100 | > 100 | > 100 | > 100 | > 100 | > 100 | > 100 | > 100 | – |
| C1=CCC[C@@H]2CN3CCCC/C=C\CCCC[C@H]4C[C@H](CN(CCCCCCCC1)C4)[C@H]2CC3 | 29.8 | > 50 | 16.3 | 28.4 | 20.2 | 18 | 16.4 | 34.5 | – | 15.2 | 41.2 | – | 14.7 | 20.8 | 18.1 | 16.4 | 20.1 |
| COc1ccc(NC(=O)C(C#N)=C(SC)SC)cc1 | > 100 | > 100 | > 100 | > 100 | > 100 | > 100 | > 100 | > 100 | – | > 100 | > 100 | > 100 | > 100 | > 100 | > 100 | > 100 | > 100 |
| CC(C)=NOC(=O)OC[C@H]1O[C@@H](n2cnc3c(N)ncnc32)C(O)C1O (stereo not given in full) | > 100 | > 100 | – | > 100 | > 100 | > 100 | > 100 | > 100 | > 100 | > 100 | > 100 | > 100 | > 100 | > 100 | – | > 100 | > 100 |
| CCOC(=O)[C@@]1(C(C)=O)CC(C)=C(C)C[S@]1=O | > 100 | > 100 | > 100 | – | > 100 | > 100 | > 100 | > 100 | > 100 | > 100 | > 100 | > 100 | > 100 | > 100 | > 100 | > 100 | > 100 |
| CNC(=O)N1CN(c2ccccc2)C2(CCN(Cc3ccccc3)CC2)C1=O | – | > 100 | > 100 | > 100 | – | > 100 | > 100 | > 100 | 51.3 | > 100 | > 100 | > 100 | > 100 | 11 | > 100 | > 100 | 52.3 |
| O=C(O)c1ccccc1/C=C1/Cc2ccc3c(c2C1=O)CCC3 | 96.8 | > 100 | > 100 | 48 | > 100 | > 100 | – | 96 | > 100 | 95.2 | > 100 | > 100 | > 100 | > 100 | > 100 | > 100 | 91.3 |
| O=C1CCCCCCCCCCC1CN1CCOCC1 (stereo not given) | > 100 | > 100 | > 100 | > 100 | > 100 | > 100 | > 100 | > 100 | – | > 100 | > 100 | > 100 | > 100 | > 100 | > 100 | > 100 | > 100 |
| N#Cc1sc2c(c1OC(=O)c1ccc(Cl)cc1Cl)c(=O)n(-c1ccccc1)c(=S)n2-c1ccccc1 | – | > 100 | 39.2 | 46.7 | 89.6 | 38.6 | 75.1 | 50.8 | 50.3 | 76.3 | > 100 | 42 | > 100 | > 100 | > 100 | 73.4 | > 100 |
| COc1ccc(N/N=C/C2=CC(C)(C)C(C#N)(C#N)C(O)=C2C#N)cc1 | – | > 100 | > 100 | > 100 | > 100 | > 100 | > 100 | > 100 | > 100 | > 100 | > 100 | > 100 | > 100 | > 100 | > 100 | > 100 | 82.3 |
| CC(=O)Nn1cnc(C(=N)C#N)c1N | > 100 | > 100 | > 100 | > 100 | > 100 | > 100 | > 100 | > 100 | > 100 | > 100 | > 100 | – | > 100 | > 100 | > 100 | > 100 | > 100 |
| CCOC(=O)C(NC(=O)c1cccc(Cl)c1)(Nc1ccc(S(=O)(=O)Nc2cc(C)nc(C)n2)cc1)C(F)(F)F (stereo not given) | – | > 100 | > 100 | > 100 | > 100 | > 100 | > 100 | > 100 | > 100 | > 100 | > 100 | – | > 100 | > 100 | > 100 | > 100 | > 100 |
| c1cc(C2=NCCO2)c2ccsc2c1 | – | > 100 | > 100 | > 100 | 49.8 | > 100 | > 100 | > 100 | > 100 | > 100 | > 100 | > 100 | > 100 | > 100 | > 100 | > 100 | > 100 |
| NNC(=O)CC(=O)Nc1ccc(S(=O)(=O)c2ccc(NC(=O)CC(=O)NN)cc2)cc1 | > 100 | > 100 | > 100 | > 100 | > 100 | > 100 | > 100 | > 100 | > 100 | > 100 | > 100 | > 100 | > 100 | > 100 | > 100 | – | – |
| COc1ccc2c(=O)c3c([nH]c2c1)OCC3=O | > 100 | > 100 | > 100 | > 100 | > 100 | > 100 | > 100 | > 100 | > 100 | – | > 100 | > 100 | > 100 | > 100 | > 100 | > 100 | > 100 |
| O=C(c1ccccc1)N(CCCCNC(=O)C(F)(F)F)CCCNC(=O)C(F)(F)F | > 100 | > 100 | > 100 | > 100 | > 100 | > 100 | > 100 | > 100 | > 100 | – | – | > 100 | > 100 | > 100 | > 100 | > 100 | > 100 |
| CN(C)/C=C/c1c2c(nc3ccccc13)C(=O)c1cccnc1C2=O | 1.6 | 1.47 | 0.697 | 2.53 | 4.65 | 4.16 | > 100 | 0.42 | 1.9 | 1.09 | 11.1 | 3.48 | 1.84 | 21.6 | 1.8 | – | 0.907 |
| COC(=O)C(CC(C)C)NC(=O)C(CCCN=C(N)N)NC(=O)OCc1ccccc1 (stereo not drawn) (Cbz-Arg-Leu-OMe; configuration not given here) | > 100 | > 100 | > 100 | > 100 | > 100 | > 100 | > 100 | > 100 | > 100 | > 100 | > 100 | > 100 | > 100 | > 100 | – | > 100 | > 100 |
| COc1ccc(/C=C2/SC(=Nc3ccccc3)N(NC(=O)Cc3ccccc3)C2=O)c(OC)c1 | – | > 100 | > 100 | – | > 100 | > 100 | > 100 | > 100 | > 100 | > 100 | – | > 100 | > 100 | > 100 | > 100 | > 100 | – |
| Cc1ccc2nc(CN(CCO)CCO)cc(=O)n2c1 | > 100 | > 100 | > 100 | > 100 | > 100 | > 100 | > 100 | > 100 | > 100 | > 100 | > 100 | – | > 100 | – | > 100 | > 100 | > 100 |
| COC(=O)CCC(=O)c1ccc2c(c1)CC1(C2)Cc2ccc(C(=O)CCC(=O)OC)cc2C1 | – | – | > 100 | > 100 | > 100 | > 100 | > 100 | > 100 | > 100 | > 100 | > 100 | > 100 | – | > 100 | > 100 | > 100 | 88.5 |
| CSc1nc(-c2ccccc2)nc(C(C#N)C#N)n1 | – | > 100 | > 100 | > 100 | > 100 | > 100 | > 100 | > 100 | > 100 | > 100 | > 100 | > 100 | > 100 | > 100 | > 100 | > 100 | – |
| C/C=C\C(CC(=O)NCCC1CN(C(=O)OCc2ccccc2)c2ccccc21)CC(=O)OC (stereo not given) | > 100 | > 100 | > 100 | – | > 100 | > 100 | > 100 | > 100 | > 100 | > 100 | > 100 | > 100 | > 100 | – | > 100 | > 100 | – |
| Cc1c(C(=O)Nc2ccccc2)nnn1-c1ccnc2cc(C(F)(F)F)ccc12 | > 100 | > 100 | > 100 | 77.7 | > 100 | > 100 | > 100 | > 100 | > 100 | > 100 | > 100 | > 100 | > 100 | > 100 | > 100 | > 100 | – |
| O=C1c2cn[nH]c2N=C(Nc2ccccc2)C1N=Cc1ccc([N+](=O)[O-])cc1 (stereo not given) | > 10 | > 10 | > 10 | > 10 | > 10 | – | – | > 10 | – | > 10 | > 10 | – | – | – | > 10 | > 10 | > 10 |
| CCN(CC)CCCNc1n[n+]([O-])c2ccccc2[n+]1[O-] | > 100 | 66.9 | 57.3 | 19.7 | – | 24.2 | 31.4 | 46.9 | > 100 | – | > 100 | 76.2 | > 100 | 68.1 | 54.7 | 42.4 | 76.2 |
| CCO[C@H]1O[C@@H]2OC3(C)CCC4[C@H](C)CCC([C@H]1C)[C@]42OO3 (stereo not given in full) | > 100 | > 100 | > 100 | 13.2 | > 100 | > 100 | > 100 | > 100 | > 100 | 99.8 | > 100 | > 100 | > 100 | > 100 | – | > 100 | > 100 |
